The target in this experiment is T1, ΔF508 mutant CFTR (Homo sapiens, UniProt P13569, DEL508-508).
T1 construct: expressed in transfected cells; host or cells: Fischer rat thyroid (FRT) cells
T1 sequence (P13569 with tags, fused parts or gaps DEL508-508): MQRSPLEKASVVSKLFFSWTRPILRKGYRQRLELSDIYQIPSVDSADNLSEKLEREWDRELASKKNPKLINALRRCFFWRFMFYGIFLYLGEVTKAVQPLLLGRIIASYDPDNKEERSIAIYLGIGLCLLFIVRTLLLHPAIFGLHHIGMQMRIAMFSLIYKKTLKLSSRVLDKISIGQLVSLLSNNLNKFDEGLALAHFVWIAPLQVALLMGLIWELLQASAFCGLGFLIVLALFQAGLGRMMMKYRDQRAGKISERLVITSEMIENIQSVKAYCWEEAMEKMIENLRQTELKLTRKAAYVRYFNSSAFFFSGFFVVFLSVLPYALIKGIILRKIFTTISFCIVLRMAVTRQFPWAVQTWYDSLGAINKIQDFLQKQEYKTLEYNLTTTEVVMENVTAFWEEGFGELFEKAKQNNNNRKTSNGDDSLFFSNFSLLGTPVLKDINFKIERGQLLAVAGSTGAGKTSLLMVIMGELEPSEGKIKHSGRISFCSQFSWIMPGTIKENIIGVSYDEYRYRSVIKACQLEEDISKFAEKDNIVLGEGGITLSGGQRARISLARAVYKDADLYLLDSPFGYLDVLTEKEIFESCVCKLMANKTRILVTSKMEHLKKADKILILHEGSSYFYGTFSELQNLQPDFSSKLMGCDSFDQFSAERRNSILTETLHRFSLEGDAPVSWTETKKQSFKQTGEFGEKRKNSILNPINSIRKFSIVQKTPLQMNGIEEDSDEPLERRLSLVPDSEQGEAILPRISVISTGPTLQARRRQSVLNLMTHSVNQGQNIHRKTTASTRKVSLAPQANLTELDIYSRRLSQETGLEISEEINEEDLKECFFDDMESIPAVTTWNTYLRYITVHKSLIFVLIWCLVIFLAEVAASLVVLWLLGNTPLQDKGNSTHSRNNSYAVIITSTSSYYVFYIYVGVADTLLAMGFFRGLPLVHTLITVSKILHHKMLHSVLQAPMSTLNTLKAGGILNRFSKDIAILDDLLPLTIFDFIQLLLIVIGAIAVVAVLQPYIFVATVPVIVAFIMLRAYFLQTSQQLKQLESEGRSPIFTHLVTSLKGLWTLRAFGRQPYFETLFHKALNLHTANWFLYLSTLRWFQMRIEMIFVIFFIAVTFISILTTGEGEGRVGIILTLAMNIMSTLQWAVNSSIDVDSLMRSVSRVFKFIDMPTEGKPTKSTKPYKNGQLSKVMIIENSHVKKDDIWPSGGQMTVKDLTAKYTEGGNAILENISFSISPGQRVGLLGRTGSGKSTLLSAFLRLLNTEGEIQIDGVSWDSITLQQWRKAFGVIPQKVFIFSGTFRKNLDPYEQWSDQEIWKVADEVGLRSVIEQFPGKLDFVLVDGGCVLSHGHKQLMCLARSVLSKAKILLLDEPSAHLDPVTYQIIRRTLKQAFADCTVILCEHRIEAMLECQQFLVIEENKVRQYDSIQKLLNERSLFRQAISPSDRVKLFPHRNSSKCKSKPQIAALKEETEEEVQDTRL
As to the kind of experiment: Fluorescence (YFP halide quenching) assay of ΔF508 mutant CFTR activity in FRT cells. Format: cell-based. On the set-up: key: fold of mean activity with forskolin alone (I− quenching rate). The note with it: FRT cells expressing ΔF508-CFTR and YFP-H148Q/I152L, rescued at 27° C. 20-24 h; forskolin 20 μM + test compound 20 μM for 20 min; I− influx rate normalized to forskolin alone. The source says: The ΔF508 mutant CFTR activities of the CFTR modulators are detected using the Fluorescence Assay developed by Pedemonte (Pedemonte N., et al., Antihypertensive 1,4-dihydropyridines as correctors of the cystic fibrosis transmembrane conductance regulator channel gating defect caused by cystic fibrosis mutations, Mol. Pharmacol., 2005, 68, 1736-1746).
Fischer rat thyroid (FRT) cells, stably transfected with ΔF508 were retransfected with the YFP-H148Q/I152L fluorescent protein. The cells were plated (100,000 cells/well) on black 96-well microplates with clear plastic bottom (Corning Life Sciences, Acton, Mass.).
The 96-well microplates containing FRT cells expressing F508-CFTR and the halide-sensitive YFP were incubated at 27° C. for 20 to 24 h to allow rescue of the mutant protein to the plasma membrane. After incubation, cells were washed with PBS (containing 137 mM NaCl, 2.7 mM KCl, 8.1 mM Na2HPO4, 1.5 mM KH2PO4, 1 mM CaCl2, and 0.5 mM MgCl2) and stimulated for 20 min with forskolin (20 μM) and test compounds (20 μM) in a final volume of 60 μl. Microplates were then transferred to a microplate reader for CFTR activity determination. Each assay consisted of a continuous 14-s fluorescence reading (5 points per second) with 2 s before and 12 s after injection of 165 μl of an iodide-containing solution (PBS with Cl^− replaced by I^−). Final iodide concentration in the wells was 100 mM. […] To determine I^− influx rate, the final 11 s of the data for each well were fitted with an exponential function to extrapolate initial slope. CFTR activity was determined by measuring the rate of fluorescence quenching induced by extracellular addition of I^−. Data are normalized to the mean activity measured in the presence of forskolin alone.
For `Cl.Nc1cc(F)c(-c2c(F)cccc2F)nc1C(=O)Nc1cncnc1OC1CNC1` [Example 31, 3-amino-N-(4-(azetidin-3-yloxy)pyrimidin-5-yl)-6-(2,6-difluorophenyl)-5-fluoropicolinamide hydrochloride], the “CFTR Activity” value was determined as 1.0.

With `Cl.Nc1cc(F)c(-c2c(F)cccc2F)nc1C(=O)Nc1cncnc1OCC1CNC1` [Example 32, 3-amino-N-(4-(azetidin-3-ylmethoxy)pyrimidin-5-yl)-6-(2,6-difluorophenyl)-5-fluoropicolinamide hydrochloride], the “CFTR Activity” value stood at 1.0.

Regarding `Cl.NCC(CCl)Oc1ncncc1NC(=O)c1nc(-c2c(F)cccc2F)c(F)cc1N` (stereo not drawn) [Example 33, 3-amino-N-(4-((1-amino-3-chloropropan-2-yl)oxy)pyrimidin-5-yl)-6-(2,6-difluorophenyl)-5-fluoropicolinamide hydrochloride], the “CFTR Activity” value was 2.2.

For `Cl.NCC(CCl)COc1ncncc1NC(=O)c1nc(-c2c(F)cccc2F)c(F)cc1N` (stereo not drawn) [Example 34, 3-amino-N-(4-(3-amino-2-(chloromethyl)propoxy)pyrimidin-5-yl)-6-(2,6-difluorophenyl)-5-fluoropicolinamide hydrochloride], the “CFTR Activity” value turned out to be 2.0.

In the case of `Cl.Nc1cc(F)c(-c2c(F)cccc2F)nc1C(=O)Nc1cncnc1OCC1CCCNC1` (stereo not drawn) [Example 35, 3-amino-6-(2,6-difluorophenyl)-5-fluoro-N-(4-(piperidin-3-ylmethoxy)pyrimidin-5-yl)picolinamide hydrochloride], the “CFTR Activity” value is 2.1.

For `Cl.NCCCCOc1ncncc1NC(=O)c1nc(-c2c(F)cccc2F)c(F)cc1N` [Example 36, 3-amino-N-(4-(4-aminobutoxy)pyrimidin-5-yl)-6-(2,6-difluorophenyl)-5-fluoropicolinamide], the “CFTR Activity” value was found to be 2.4.

`Cl.Nc1cc(F)c(-c2c(F)cccc2F)nc1C(=O)Nc1cncnc1OC1CCCC(N)C1` (stereo not drawn) [Example 37, 3-amino-N-(4-((3-aminocyclohexyl)oxy)pyrimidin-5-yl)-6-(2,6-difluorophenyl)-5-fluoropicolinamide]: the “CFTR Activity” value was found to be 4.1.

As to `Cl.Nc1cc(F)c(-c2ccccc2)nc1C(=O)Nc1cncnc1OC1CCNC1` (stereo not drawn) [Example 38, 3-amino-5-fluoro-6-phenyl-N-(4-(pyrrolidin-3-yloxy)pyrimidin-5-yl)picolinamide hydrochloride], the “CFTR Activity” value is given as 1.1.

In the case of `Cl.O=C(Nc1cncnc1OC1CCNCC1)c1ccc(F)c(-c2ccncc2)n1` [Example 39, 3-fluoro-N-(4-(piperidin-4-yloxy)pyrimidin-5-yl)-[2,4′-bipyridine]-6-carboxamide hydrochloride], the “CFTR Activity” value was 0.5.

As to `Cl.O=C(Nc1cncnc1OC1CCCNCC1)c1nc(-c2c(F)cccc2F)ccc1F` (stereo not drawn) [Example 40, N-(4-(azepan-4-yloxy)pyrimidin-5-yl)-6-(2,6-difluorophenyl)-3-fluoropicolinamide hydrochloride], the “CFTR Activity” value was found to be 1.9.

Consider `COc1cccc(F)c1-c1nc(C(=O)Nc2cncnc2OC2CCCNCC2)ccc1F.Cl` (stereo not drawn) [Example 41, N-(4-(azepan-4-yloxy)pyrimidin-5-yl)-5-fluoro-6-(2-fluoro-6-methoxyphenyl)picolinamide hydrochloride], for which the “CFTR Activity” value amounted to 1.8.

For `Cl.O=C(Nc1cncnc1OC1CCCNCC1)c1ccc(C(F)(F)F)c(-c2c(F)cccc2F)n1` (stereo not drawn) [Example 42, N-(4-(azepan-4-yloxy)pyrimidin-5-yl)-6-(2,6-difluorophenyl)-5-(trifluoromethyl)picolinamide hydrochloride], the “CFTR Activity” value was determined as 2.4.

Turning to `Cl.O=C(Nc1cncnc1OCC1CCNCC1)c1ccc(C(F)(F)F)c(-c2c(F)cccc2F)n1` [Example 43, 6-(2,6-difluorophenyl)-N-(4-(piperidin-4-ylmethoxy)pyrimidin-5-yl)-5-(trifluoromethyl)picolinamide hydrochloride], the “CFTR Activity” value came out at 1.3.

For `Cl.O=C(Nc1cncnc1OCC1CNC1)c1ccc(C(F)(F)F)c(-c2c(F)cccc2F)n1` [Example 44, N-(4-(azetidin-3-ylmethoxy)pyrimidin-5-yl)-6-(2,6-difluorophenyl)-5-(trifluoromethyl)picolinamide hydrochloride], the “CFTR Activity” value is listed as 1.8.

For `Cl.O=C(Nc1cncnc1OC1CCNCC1)c1ccc(C(F)(F)F)c(-c2c(F)cccc2F)n1` [Example 45, 6-(2,6-difluorophenyl)-N-(4-(piperidin-4-yloxy)pyrimidin-5-yl)-5-(trifluoromethyl)picolinamide hydrochloride], the “CFTR Activity” value was determined as 2.7.

For the compound `Cl.N[C@H]1CC[C@H](Oc2ncncc2NC(=O)c2ccc(C(F)(F)F)c(-c3c(F)cccc3F)n2)CC1` [Example 46, N-(4-(((1r,4r)-4-aminocyclohexyl)oxy)pyrimidin-5-yl)-6-(2,6-difluorophenyl)-5-(trifluoromethyl)picolinamide hydrochloride], the “CFTR Activity” value was 3.2.

`O=C(Nc1cncnc1OCC1CCOCC1)c1ccc(C(F)(F)F)c(-c2c(F)cccc2F)n1` [Example 47, 6-(2,6-difluorophenyl)-N-(4-((tetrahydro-2H-pyran-4-yl)methoxy)pyrimidin-5-yl)-5-(trifluoromethyl)picolinamide]: the “CFTR Activity” value came out at 0.1.

As for `Cl.Nc1cc(C(F)(F)F)c(-c2c(F)cccc2F)nc1C(=O)Nc1cncnc1OC1CCCNCC1` (stereo not drawn) [Example 48, 3-amino-N-(4-(azepan-4-yloxy)pyrimidin-5-yl)-6-(2,6-difluorophenyl)-5-(trifluoromethyl)picolinamide hydrochloride], the “CFTR Activity” value is reported as 4.1.

On to `Cl.Nc1cc(C(F)(F)F)c(-c2c(F)cccc2F)nc1C(=O)Nc1cncnc1OCC1CCNCC1` [Example 49, 3-amino-6-(2,6-difluorophenyl)-N-(4-(piperidin-4-ylmethoxy)pyrimidin-5-yl)-5-(trifluoromethyl)picolinamide hydrochloride], for which the “CFTR Activity” value was found to be 3.2.

Consider `Cl.Nc1cc(C(F)(F)F)c(-c2c(F)cccc2F)nc1C(=O)Nc1cncnc1OCC1CNC1` [Example 50, 3-amino-N-(4-(azetidin-3-ylmethoxy)pyrimidin-5-yl)-6-(2,6-difluorophenyl)-5-(trifluoromethyl)picolinamide hydrochloride], for which the “CFTR Activity” value was 2.9.

For `Cl.Nc1cc(C(F)(F)F)c(-c2c(F)cccc2F)nc1C(=O)Nc1cncnc1OC1CCNCC1` [Example 51, 3-amino-6-(2,6-difluorophenyl)-N-(4-(piperidin-4-yloxy)pyrimidin-5-yl)-5-(trifluoromethyl)picolinamide hydrochloride], the “CFTR Activity” value was 4.0.

On to `Cl.Nc1cc(C(F)(F)F)c(-c2c(F)cccc2F)nc1C(=O)Nc1cncnc1O[C@H]1CC[C@H](N)CC1` [Example 52, 3-amino-N-(4-(((1r,4r)-4-aminocyclohexyl)oxy)pyrimidin-5-yl)-6-(2,6-difluorophenyl)-5-(trifluoromethyl)picolinamide hydrochloride], for which the “CFTR Activity” value turned out to be 4.3.

On to `Cl.Nc1cc(C(F)(F)F)c(-c2ccccc2)nc1C(=O)Nc1cncnc1OC1CCNC1` (stereo not drawn) [Example 53, 3-amino-6-phenyl-N-(4-(pyrrolidin-3-yloxy)pyrimidin-5-yl)-5-(trifluoromethyl)picolinamide hydrochloride], for which the “CFTR Activity” value came to 2.4.

Take `Cl.NCC(CCl)COc1ncncc1NC(=O)c1ccc(C(F)(F)F)c(-c2c(F)cccc2F)n1` (stereo not drawn) [Example 54, N-(4-(3-amino-2-(chloromethyl)propoxy)pyrimidin-5-yl)-6-(2,6-difluorophenyl)-5-(trifluoromethyl)picolinamide hydrochloride]: the “CFTR Activity” value was determined as 2.0.

As for `Cl.NCC(CCl)COc1ncncc1NC(=O)c1nc(-c2c(F)cccc2F)c(C(F)(F)F)cc1N` (stereo not drawn) [Example 55, 3-amino-N-(4-(3-amino-2-(chloromethyl)propoxy)pyrimidin-5-yl)-6-(2,6-difluorophenyl)-5-(trifluoromethyl)picolinamide hydrochloride], the “CFTR Activity” value worked out at 4.4.

Turning to `Cl.NCC(CO)COc1ncncc1NC(=O)c1ccc(F)c(-c2c(F)cccc2F)n1` (stereo not drawn) [Example 56, N-(4-(3-amino-2-(hydroxymethyl)propoxy)pyrimidin-5-yl)-6-(2,6-difluorophenyl)-5-fluoropicolinamide hydrochloride], the “CFTR Activity” value worked out at 2.5.

As to `Cl.NCC(CO)COc1ncncc1NC(=O)c1nc(-c2c(F)cccc2F)c(F)cc1N` (stereo not drawn) [Example 57, 3-amino-N-(4-(3-amino-2-(hydroxymethyl)propoxy)pyrimidin-5-yl)-6-(2,6-difluorophenyl)-5-fluoropicolinamide hydrochloride], the “CFTR Activity” value turned out to be 2.1.

The values are drawn from patent publication US9981945B2, “Pyrimidine derivatives as CFTR modulators” (NuBridge BioSciences, priority 2015, dated 2018).
